A word on the EC50: it is the concentration that produces a half-maximal response.

Consider 24 compounds from patent US11230526B1, “Cylcoalkenyl derivatives useful as agonists of the GPR120 and/or GPR40 receptors” (Janssen Pharmaceutica NV, priority 2018, dated 2022).

SMILES strings stand for the structures.

In experiment [1] the target is T1, Human GPR120 short form (Homo sapiens, UniProt Q5NUL3).
T1 construct: expressed in transfected cells
T1 sequence (Q5NUL3 1-361): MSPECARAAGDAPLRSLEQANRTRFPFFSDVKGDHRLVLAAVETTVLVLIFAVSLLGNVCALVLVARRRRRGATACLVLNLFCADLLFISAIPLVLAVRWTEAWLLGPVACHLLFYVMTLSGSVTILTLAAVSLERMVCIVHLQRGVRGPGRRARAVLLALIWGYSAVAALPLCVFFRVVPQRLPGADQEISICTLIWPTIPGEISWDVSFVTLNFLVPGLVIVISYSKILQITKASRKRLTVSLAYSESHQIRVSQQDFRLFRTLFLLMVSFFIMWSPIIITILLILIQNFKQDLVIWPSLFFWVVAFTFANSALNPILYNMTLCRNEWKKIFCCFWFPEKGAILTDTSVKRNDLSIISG
The experiment is described as follows: Human GPR120 calcium flux assay, Procedure Calcium A (2500 cells/well). The class given is cell-based. An outline of the steps: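 HEK293 cells stably expressing human GPR120 short isoform (NM_001195755.1), 2500 cells/well, serum-starved 1 h at 37 °C and loaded with Fluo-4 NW plus probenecid. FLIPR fluorescence read for 300 s after compound addition; response = Fmax−Fmin. EC50 from four-parameter concentration–response fit.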

The target in experiment [2] is T2, human GPR40 (Homo sapiens, UniProt O14842).
T2 construct: expressed in transfected cells
Put plainly: GPR40 calcium flux assay, human GPR40. The class given is cell-based. To be noted: HEK293 cells stably expressing GPR40; table does not say human or rat. The method in brief: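 Cells preincubated 1 h at 37° C. in HBSS, 20 mM HEPES, 0.1% BSA, then Fluo 8 calcium dye 30 min at 37° C. and 15 min at room temperature.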
On the technique in general: Calcium flux is commonly read through the fluorescence of an indicator in the cells.

T2 sequence (O14842 whole entry): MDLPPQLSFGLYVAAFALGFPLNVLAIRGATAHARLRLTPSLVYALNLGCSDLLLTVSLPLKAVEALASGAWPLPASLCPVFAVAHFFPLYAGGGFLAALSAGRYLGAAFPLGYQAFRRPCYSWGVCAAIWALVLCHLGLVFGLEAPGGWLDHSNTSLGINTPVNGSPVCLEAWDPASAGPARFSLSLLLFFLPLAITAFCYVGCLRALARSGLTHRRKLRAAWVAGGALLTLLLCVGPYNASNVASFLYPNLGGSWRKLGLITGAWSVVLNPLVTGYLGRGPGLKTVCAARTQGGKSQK

As to `Cc1ccc(C2=C(COc3ccc(CCC(=O)O)c(C)c3C)CCC2)cc1N` [Compound 134, 3-(4-((2-(3-amino-4-methylphenyl)cyclopent-1-en-1-yl)methoxy)-2,3-dimethylphenyl)Propanoic Acid], the EC50 is 2000 nM in experiment [1] and above 5000 nM in experiment [2].

For `O=C(O)CCc1ccc(OCC2=C(c3ccc(Cl)cc3)CCCC2)c(F)c1F` [Compound 513, 3-[4-[[2-(4-chlorophenyl)cyclohexen-1-yl]methoxy]-2,3-difluoro-phenyl]Propanoic Acid], the values for the EC50 in experiment [1] and in experiment [2] were 331 nM and above 5000 nM, respectively.

`Cc1c(CCC(=O)O)ccc(OCC2=C(c3ccccc3Br)CCC2)c1C` [Compound 111, 3-[4-[[2-(2-bromophenyl)cyclopenten-1-yl]methoxy]-2,3-dimethyl-phenyl]Propanoic Acid]: the half-maximal effective concentration (EC50) in experiment [1] is 777 nM; in experiment [2] it was above 5000 nM.

Regarding `Cc1c(CCC(=O)O)ccc(OCC2=C(c3ccc(Cl)cc3)CCC(F)(F)C2)c1C` [Compound 468, 3-[4-[[2-(4-chlorophenyl)-5,5-difluoro-cyclohexen-1-yl]methoxy]-2,3-dimethyl-phenyl]Propanoic Acid], the results for the EC50 in experiment [1] and in experiment [2] were 261 nM and above 5000 nM, respectively.

In the case of `Cc1c(CCC(=O)O)ccc(OCC2=C(c3ccc(Cl)cc3)CCC2)c1C` [Compound 15, 3-(4-((2-(4-chlorophenyl)cyclopent-1-en-1-yl)methoxy)-2,3-dimethylphenyl)Propanoic Acid], the 50% effective concentration (EC50) was 206 nM in experiment [1] and above 5000 nM in experiment [2].

With `Cc1c(CCC(=O)O)ccc(OCC2=C(c3cncs3)CCC2)c1C` [Compound 88, 3-[2,3-dimethyl-4-[(2-thiazol-5-ylcyclopenten-1-yl)methoxy]phenyl]Propanoic Acid], the EC50 in experiment [1] was 461 nM; in experiment [2] it was above 5000 nM.

Consider `CCc1ccc(C2=C(COc3c(F)cc(CCC(=O)O)cc3F)CCC2)cc1` [Compound 16, 3-(4-((2-(4-ethylphenyl)cyclopent-1-en-1-yl)methoxy)-3,5-difluorophenyl)Propanoic Acid], for which the EC50 in experiment [1] is 198 nM; in experiment [2], above 5000 nM.

In the case of `O=C(O)CCc1ccc(OCC2=C(c3ccc(Cl)cc3)CCC(F)(F)C2)c(F)c1F` [Compound 503, 3-[4-[[2-(4-chlorophenyl)-5,5-difluoro-cyclohexen-1-yl]methoxy]-2,3-difluoro-phenyl]Propanoic Acid], the EC50 is 493 nM in experiment [1] and above 5000 nM in experiment [2].

Consider `Cc1c(CCC(=O)O)ccc(OCC2=C(c3ccccc3F)CCC2)c1C` [Compound 124, 3-[4-[[2-(2-fluorophenyl)cyclopenten-1-yl]methoxy]-2,3-dimethyl-phenyl]Propanoic Acid], for which the results for the EC50 in experiment [1] and in experiment [2] were 308 nM and above 5000 nM, respectively.

As for `Cc1ccc(C2=C(COc3c(F)cc(CCC(=O)O)cc3F)CCC2)cc1` [Compound 95, 3-(3,5-difluoro-4-((2-(p-tolyl)cyclopent-1-en-1-yl)methoxy)phenyl)Propanoic Acid], the EC50 in experiment [1] was 378 nM; in experiment [2], above 5000 nM.

As to `O=C(O)CCc1c(F)c(F)c(OCC2=C(c3ccc(Cl)cc3)CCCC2)c(F)c1F` [Compound 479, 3-[4-[[2-(4-chlorophenyl)cyclohexen-1-yl]methoxy]-2,3,5,6-tetrafluoro-phenyl]Propanoic Acid], the concentration for a half-maximal effect (EC50) in experiment [1] is 958 nM; in experiment [2] it was above 5000 nM.

In the case of `Cc1c(CCC(=O)O)ccc(OCC2=C(c3ccccn3)CCC2)c1C` [Compound 147, 3-[2,3-dimethyl-4-[[2-(2-pyridyl)cyclopenten-1-yl]methoxy]phenyl]Propanoic Acid], the EC50 in experiment [1] was 1010 nM; in experiment [2] it was above 5000 nM.

In the case of `Cc1ccc(C2=C(COc3ccc(CCC(=O)O)c(C)c3C)CCC2)cc1` [Compound 52, 3-[2,3-dimethyl-4-[[2-(p-tolyl)cyclopenten-1-yl]methoxy]phenyl]Propanoic Acid], the results for the EC50 in experiment [1] and in experiment [2] were 173 nM and above 10000 nM, respectively.

Consider `Cc1cc(OCC2=C(c3ccc(Cl)cc3)CCC2)ccc1CCC(=O)O` [Compound 131, 3-[4-[[2-(4-chlorophenyl)cyclopenten-1-yl]methoxy]-2-methyl-phenyl]Propanoic Acid], for which the EC50 in experiment [1] was determined as 533 nM; in experiment [2] it was 1990 nM.

In the case of `O=C(O)CCc1cc(F)c(OCC2=C(c3ccc(Cl)cc3)CCC2)c(F)c1` [Compound 60, 3-[4-[[2-(4-chlorophenyl)cyclopenten-1-yl]methoxy]-3,5-difluoro-phenyl]Propanoic Acid], the 50% effective concentration (EC50) is 550 nM in experiment [1] and above 5000 nM in experiment [2].

Turning to `Cc1c(CCC(=O)O)ccc(OCC2=C(c3ncccn3)CCC2)c1C` [Compound 105, 3-[2,3-dimethyl-4-[(2-pyrimidin-2-ylcyclopenten-1-yl)methoxy]phenyl]Propanoic Acid], the EC50 in experiment [1] is 1630 nM; in experiment [2], above 5000 nM.

In the case of `O=C(O)CCc1ccc(OCC2=C(c3ccc(Cl)cc3)CCCC2)c2c1CCC2` [Compound 514, 3-[7-[[2-(4-chlorophenyl)cyclohexen-1-yl]methoxy]indan-4-yl]Propanoic Acid], the EC50 in experiment [1] was 340 nM; in experiment [2] it was above 5000 nM.

Consider `Cc1ccc(C2=C(COc3ccc(CCC(=O)O)c(C)c3C)CCC2)cc1C` [Compound 106, 3-(4-((2-(3,4-dimethylphenyl)cyclopent-1-en-1-yl)methoxy)-2,3-dimethylphenyl)Propanoic Acid], for which the results for the half-maximal effective concentration (EC50) in experiment [1] and in experiment [2] were 572 nM and above 5000 nM, respectively.

Turning to `Cc1c(CCC(=O)O)ccc(OCC2=C(c3ccc(F)cc3)CCC2)c1C` [Compound 4, 3-[4-[[2-(4-fluorophenyl)cyclopenten-1-yl]methoxy]-2,3-dimethyl-phenyl]Propanoic Acid], the concentration giving a half-maximal response (EC50) in experiment [1] is 294 nM; in experiment [2], above 5000 nM.

Take `Cc1ccc(C2=C(COc3ccc(CCC(=O)O)c(F)c3F)CCC2)cc1F` [Compound 78, 3-(2,3-difluoro-4-((2-(3-fluoro-4-methylphenyl)cyclopent-1-en-1-yl)methoxy)phenyl)Propanoic Acid]: the concentration for a half-maximal effect (EC50) in experiment [1] was 94 nM; in experiment [2], above 5000 nM.

For `Cc1ccc(C2=C(COc3ccc(CCC(=O)O)c(F)c3F)CCC2)cc1N` [Compound 93, 3-(4-((2-(3-amino-4-methylphenyl)cyclopent-1-en-1-yl)methoxy)-2,3-difluorophenyl)Propanoic Acid], the results for the EC50 in experiment [1] and in experiment [2] were 427 nM and above 5000 nM, respectively.

Take `O=C(O)CCc1ccc(OCC2=C(c3ccc(Cl)cc3)CCC2)c(F)c1F` [Compound 70, 3-[4-[[2-(4-chlorophenyl)cyclopenten-1-yl]methoxy]-2,3-difluoro-phenyl]Propanoic Acid]: the half-maximal effective concentration (EC50) in experiment [1] was 344 nM; in experiment [2] it was above 5000 nM.

`Cc1ccc(C2=C(COc3ccc(CCC(=O)O)c(F)c3F)CCC2)c(C)c1` [Compound 72, 3-(4-((2-(2,4-dimethylphenyl)cyclopent-1-en-1-yl)methoxy)-2,3-difluorophenyl)Propanoic Acid]: the concentration for a half-maximal effect (EC50) in experiment [1] is 658 nM; in experiment [2] it was above 5000 nM.

As to `O=C(O)CCc1ccc(OCC2=C(c3ccc(Cl)cc3)CCC2)c(F)c1` [Compound 149, 3-[4-[[2-(4-chlorophenyl)cyclopenten-1-yl]methoxy]-3-fluoro-phenyl]Propanoic Acid], the EC50 in experiment [1] is 128 nM; in experiment [2], above 10000 nM.
